# Assay results published in patent US20230365563A1, “QUINAZOLINE COMPOUND AND APPLICATION THEREOF” (SHANGHAI PHARMACEUTICALS HOLDING CO., LTD., priority 2020, published 2023).
# Where a name gives a salt, the structure may show the parent alone.
# Key:
# KRAS-G12D and SOS1 = biological target: T1, KRAS-G12D and SOS1 (Homo sapiens, UniProt P01116, G12D); test: Inhibition of KRAS-G12D/SOS1 binding (Cisbio binding kit, 665/615 ratio), Effect Embodiment A; conditions: read-out: GTP-KRAS-G12D:SOS1 IC50
# T1 construct: purchased
# T1 sequence (P01116 1-188 isoform P01116-2 G12D): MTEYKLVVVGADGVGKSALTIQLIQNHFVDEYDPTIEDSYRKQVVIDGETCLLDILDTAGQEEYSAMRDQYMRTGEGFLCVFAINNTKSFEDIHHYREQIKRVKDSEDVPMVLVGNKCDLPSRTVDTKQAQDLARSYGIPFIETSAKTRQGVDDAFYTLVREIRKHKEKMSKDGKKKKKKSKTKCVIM
# In short: (§1)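 Compounds underwent 3-fold dilution from their storage solutions (11 points), were transferred to assay wells in duplicate with DMSO held at 1% final, and were briefly centrifuged.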
# KRAS_G12D and cRAF = biological target: T2, KRAS_G12D and cRAF (Homo sapiens, UniProt P01116, G12D); test: Inhibition of KRAS_G12D/cRAF binding (Cisbio binding kit, 665/615 ratio), Effect Embodiment B; conditions: read-out: GTP-KRAS-G12D:CRAF IC50
# T2 construct: purchased
# T2 sequence (P01116 1-188 isoform P01116-2 G12D): as above
# In short: as §1
# KRAS_WT and SOS1 = biological target: T3, KRAS_WT and SOS1 (Homo sapiens, UniProt P01116); test: Inhibition of KRAS_WT/SOS1 binding (Cisbio binding kit, 665/615 ratio), Effect Embodiment C; conditions: read-out: GTP-KRAS-WT:SOS1 IC50
# T3 construct: purchased
# T3 sequence (P01116 1-188 isoform P01116-2): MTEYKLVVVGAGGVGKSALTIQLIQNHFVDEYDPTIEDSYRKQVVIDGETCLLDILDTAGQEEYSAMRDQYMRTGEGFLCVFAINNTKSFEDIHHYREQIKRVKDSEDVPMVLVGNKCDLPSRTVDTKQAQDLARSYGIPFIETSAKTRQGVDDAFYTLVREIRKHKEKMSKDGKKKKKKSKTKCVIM
# In short: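 Compounds tested as 3-fold, 11-point dilutions in duplicate at 1% DMSO final against the KRAS_WT/SOS1 binding system. IC50 derived by nonlinear regression fit.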
IC50 (KRAS-G12D and SOS1) [nM],IC50 (KRAS_G12D and cRAF) [nM],IC50 (KRAS_WT and SOS1) [nM],SMILES
26.2,103,1190,"Oc1cc(-c2c(Cl)cc3c(N4CC5CCC(C4)N5)nc(OCCCN4CCOCC4)nc3c2F)c2ccccc2c1 (single isomer, unassigned) [Compound 54a, 4-((S or R)-4-((1R,5S)-3,8-diazabicyclo[3.2.1]octan-3-yl)-6-chloro-8-fluoro-2-(3-morpholinopropoxy)quinazolin-7-yl)naphthalen-2-ol]"
37.2,129,1920,"CN1CC(C)(C)C[C@H]1COc1nc(N2CC3CCC(C2)N3)c2cnc(-c3cc(O)cc4ccccc34)c(F)c2n1 [Compound 139, 4-(4-((1R,5S)-3,8-diazabicyclo[3.2.1]octan-3-yl)-8-fluoro-2-((S)-1,4,4-trimethylpyrrolidin-2-yl)methoxy)pyridinyl[4,3-d]pyrimidin-7-yl)naphthalen-2-ol diformate]"
19.3,101,196,"Oc1cc(-c2c(Cl)cc3c(N4CC5CCC(C4)N5)nc(OCC4CCC5COCCN5C4)nc3c2F)c2ccccc2c1 (single isomer, unassigned) [Compound 264b, 4-((R or S)-4-((1R,5S)-3,8-diazacyclo[3.2.1]octan-3-yl)-6-chloro-8-fluoro-2-((7R or 7S, 9aR or 9aS)-octahydropyridine[2,1-c][1,4]oxazin-7-yl)methoxy)quinazolin-7-yl)naphthalen-2-ol formate]"
39.2,71.3,1870,"Oc1cc(-c2c(Cl)cc3c(N4C[C@H]5CC[C@@H](C4)N5)nc(OCCCN4C[C@H]5C[C@@H]4CO5)nc3c2F)c2ccccc2c1 (single isomer, unassigned) [Compound 169, (R or S)-4-(2-(3-((1R,4R)-2-oxa-5-azabicyclo[2.2.1]heptan-5-yl)propoxy)-4-((1R,5S)-3,8-diazabicyclo[3.2.1]octan-3-yl)-6-chloro-8-fluoroquinazolin-7-yl)naphthalen-2-ol dihydrochloride]"
93.9,592,> 100000,"CN(C)C1CCC(Oc2nc(N3CC4CCC(C3)N4)c3cc(Cl)c(-c4cc(O)cc5ccccc45)c(F)c3n2)C1 (single isomer, unassigned) [Compound 70a, 4-((S or R)-4-((1R,5S)-3,8-diazabicyclo[3.2.1]octan-3-yl)-6-chloro-2-((1S,3R or 1R,3S)-3-(dimethylamino)cyclopentyl)oxy)-8-fluoroquinazolin-7-yl)naphthalen-2-ol dihydrochloride]"
29.2,88.9,1510,"CN1C[C@@H]2C[C@@H]2[C@H]1COc1nc(N2CC3CCC(C2)N3)c2cc(Cl)c(-c3cc(O)cc4ccccc34)c(F)c2n1 (single isomer, unassigned) [Compound 183, 4-((R or S)-4-((1R,5S)-3,8-diazabicyclo[3.2.1]octan-3-yl)-6-chloro-8-fluoro-2-((1S,2S,5R)-3-methyl-3-azabicyclo[3.1.0]hexan-2-yl)methoxy)quinazolin-7-yl)naphthalen-2-ol diformate]"
18,76.8,4260,"C#Cc1c(F)ccc2cccc(-c3c(F)cc4c(N5CC6CCC(C5)N6)nc(OCCCN5C6CCC5COC6)nc4c3F)c12 (single isomer, unassigned) [Compound 272b, 8-(3-((R or S)-4-((1R,5S)-3,8-diazabicyclo[3.2.1]octan-3-yl)-7-(8-ethynyl-7-fluoronaphtthalen-1-yl)-6,8-difluoroquinazolin-2-yl)oxy)propyl)-3-oxa-8-azabicyclo[3.2.1]octane formate]"
947,22600,12400,"CN(C)C1CN(c2nc(N3CCCNCC3)c3cc(Cl)c(-c4cc(O)cc5ccccc45)c(F)c3n2)C1 (single isomer, unassigned) [Compound 23, (S or R)-4-(6-chloro-4-(1,4-diaza-1-yl)-2-(3-(dimethylamino)azetidin-1-yl)-8-fluoroquinazolin-7-yl)naphthalen-2-ol]"
40.9,248,> 10000,"CN(C)C(C)(C)COc1nc(N2CC3CCC(C2)N3)c2cc(Cl)c(-c3cc(O)cc4ccccc34)c(F)c2n1 (single isomer, unassigned) [Compound 104, 4-((S or R)-4-((1R,5S)-3,8-diazabicyclo[3.2.1]octan-3-yl)-6-chloro-2-(2-(dimethylamino)-2-methylpropoxy)-8-fluoroquinazolin-7-yl)naphthalen-2-ol dihydrochloride]"
30.7,67.5,1160,"CN1CCC[C@@]1(C)COc1nc(N2CC3CCC(C2)N3)c2cnc(-c3cc(O)cc4ccccc34)c(F)c2n1 [Compound 136, 4-(4-((1R,5S)-3,8-diazabicyclo[3.2.1]octan-3-yl)-2-((S)-1,2-methylpyrrolidin-2-yl)methoxy)-8-fluoropyridinyl[4,3-d]pyrimidin-7-yl)naphthalen-2-ol diformate]"
27.4,66.2,1350,"Oc1cc(-c2c(Cl)cc3c(N4CC5CCC(C4)N5)nc(OCCCN4CC5CCC4CO5)nc3c2F)c2ccccc2c1 (single isomer, unassigned) [Compound 187a, (R or S)-4-(2-(3-((1S,4S or 1R,4R)-2-oxa-5-azabicyclo[2.2.2]octan-5-yl)propoxy)-4-((1R,5S)-3,8-diazabicyclo[3.2.1]octan-3-yl)-6-chloro-8-fluoroquinazolin-7-yl)naphthalen-2-ol diformate]"
23.7,16.4,84.6,"C=CCCOCCCN1CCC[C@H]1COc1nc(N2CC3CCC(C2)N3)c2cc(F)c(-c3cc(O)cc4ccc(F)c(CC)c34)c(F)c2n1 (single isomer, unassigned) [Compound 249, 4-((S or R)-4-((1R,5S)-3,8-diazacyclo[3.2.1]octan-3-yl)-2-((S)-1-(3-(but-3-en-1-oxy)propyl)pyrrolidin-2-yl)methoxy)-6,8-difluoroquinazolin-7-yl)-5-ethyl-6-fluoronaphthalen-2-ol dihydrochloride]"
46.1,134,6830,"C[C@H](COc1nc(N2CC3CCC(C2)N3)c2cc(Cl)c(-c3cc(O)cc4ccccc34)c(F)c2n1)CN1C[C@@H](C)O[C@@H](C)C1 (single isomer, unassigned) [Compound 206, 4-((S or R)-4-((1R,5S)-3,8-diazabicyclo[3.2.1]octan-3-yl)-6-chloro-2-((S)-3-((2S,6R)-2,6-dimethylmorpholinyl)-2-methylpropoxy)-8-fluoroquinazolin-7-yl)naphthalen-2-ol diformate]"
24.3,141,1660,"Oc1cc(-c2c(Cl)cc3c(N4CC5CCC(C4)N5)nc(OCCCN4CCC5(CC4)COC5)nc3c2F)c2ccccc2c1 (single isomer, unassigned) [Compound 262, 4-((S or R)-2-(3-(2-oxa-7-azaspiro[3.5]nonan-7-yl)propoxy)-4-((1R,5S)-3,8-diazacyclo[3.2.1]octan-3-yl)-6-chloro-8-fluoroquinazolin-7-yl)naphthalen-2-ol diformate]"
11.3,7.91,69.8,"C#Cc1cccc2cc(O)cc(-c3c(F)cc4c(N5CC6CCC(C5)N6)nc(OCCCN5C6CCC5COC6)nc4c3F)c12 (single isomer, unassigned) [Compound 273a, 4-((7S or 7R)-2-(3-(3-oxa-8-azabicyclo[3.2.1]octan-8-yl)propoxy)-4-((1R,5S)-3,8-diazabicyclo[3.2.1]octan-3-yl)-6,8-difluoroquinazolin-7-yl)-5-ethynylnaphthalen-2-ol diformate]"
14.8,37.9,251,"Oc1cc(-c2c(Cl)cc3c(N4CC5CCC(C4)N5)nc(OCC4(CN5C6CCC5COC6)CCC4)nc3c2F)c2ccccc2c1 (single isomer, unassigned) [Compound 173, (4R or S)-4-(2-((1-((3-oxa-8-azabicyclo[3.2.1]octan-8-yl)methyl)cyclobutyl)methoxy)-4-((1R,5S)-3,8-diazabicyclo[3.2.1]octan-3-yl)-6-chloro-8-fluoroquinazolin-7-yl)naphthalen-2-ol dihydrochloride]"
87.6,251,6390,"CN(C)C12CC(COc3nc(N4CC5CCC(C4)N5)c4cc(Cl)c(-c5cc(O)cc6ccccc56)c(F)c4n3)(C1)C2 (single isomer, unassigned) [Compound 127, 4-((S or R)-4-((1R,5S)-3,8-diazabicyclo[3.2.1]octan-3-yl)-6-chloro-2-((3-(dimethylamino)bicyclo[1.1.1]pentan-1-yl)methoxy)-8-fluoroquinazolin-7-yl)naphthalen-2-ol hydrochloride]"

SMILES,IC50 (KRAS-G12D and SOS1) [nM],IC50 (KRAS_G12D and cRAF) [nM],IC50 (KRAS_WT and SOS1) [nM]
"CN1CCC[C@H]1COc1nc(N2C[C@H]3CC[C@@H](C2)N3)c2ccc(-c3cc(O)cc4ccccc34)c(F)c2n1 [Compound 144, 4-(4-((1R,5S)-3,8-diazabicyclo[3.2.1]octan-3-yl)-8-fluoro-2-((S)-1-methylpyrrolidin-2-yl)methoxy)quinazolin-7-yl)naphthalen-2-ol tritrifluoroacetate]",14.4,17.9,180
"CN(C)[C@H]1C[C@H](Oc2nc(N3CC4CCC(C3)N4)c3cc(Cl)c(-c4cc(O)cc5ccccc45)c(F)c3n2)C1 (single isomer, unassigned) [Compound 69b, 4-((S or R)-4-((1R,5S)-3,8-diazabicyclo[3.2.1]octan-3-yl)-6-chloro-2-((1R,3S)-3-(dimethylamino)cyclobutoxy)-8-fluoroquinazolin-7-yl)naphthalen-2-ol dihydrochloride]",157,1960,> 100000
